Experiment [1] deals with patient-derived cancer line expressing the HPV E6 protein. As to the kind of experiment: Dynamic monitoring of killing of patient-derived cancer line. Format: cell-based, human. The text has this:
FIG. 16A depicts dynamic monitoring of patient-derived cancer line to assess the capacity of the TCR to specifically kill tumor lines expressing the HPV E6 protein at 10:1 effector to target ratio. […] To assess non-specific (alloreactivity) background killing by the CD8 T cells, the growth of CD8 T cells that were stimulated and expanded but not subjected to CRISPR or LV editing are represented by Curve 3.

Experiment [2] deals with E6+HLA-A*02:01+ tumor line (Caski). As to the kind of experiment: Dynamic monitoring of killing of Caski tumor line. Format: cell-based. To be noted: Caski cells. The text has this:
FIG. 16B depicts dynamic monitoring of E6^+HLA-A*02:01^+tumor line (Caski) to assess the capacity of the engineered TCR to specifically kill tumor lines expressing the HPV E6 protein at 10:1 effector to target ratio. […] To assess non-specific (alloreactivity) background killing by the CD8 T cells, the growth of CD8 T cells that were stimulated and expanded but NOT subjected to CRISPR or LV editing are represented by Curve 3.

The values below come from patent publication US12427195B1, “Methods of neoantigen identification” (La Jolla Institute for Immunology, priority 2019, dated 2025).

SMILES strings stand for the structures. Where only a bound is given, the exact number is not on record here.

With `N.N.[Cl][Pt][Cl]` [cisplatin], the “time to kill tumor line” value in experiment [1] and in experiment [2] was ≤ 48 h in each case.
